{"source": "paper PMC12704298", "about": "“Divergent acetyl-CoA binding modes mediate allosteric inhibition of bacterial hybrid-type malic enzymes” (The Journal of Biological Chemistry, 2025)", "molecules": {"B1": {"name": "BbMaeB (Bdellovibrio bacteriovorus) (protein)", "chain": "METKTETKTGTTNFDQEALLYHQQGKPGKIEVISSKPCATEKDLSLAYSPGVAAPCKAIAKDPAKVYDYTAKGNLVAVISNGTAVLGLGNIGPAAGKPVMEGKGILFKQFAGIDVFDIEVAATDVDTFCNAVRVLEPTFGGINLEDIKAPECFEIEERLKKEMNIPVFHDDQHGTAIVSGAALLNACSITNRKMEDMRIVVNGAGASANSCAKIFIALGARRENIIMCDSQGVIYKGRTAGMNKYKEYFASETEARTLTEALRGADVFVGLSVAGALTPEMLKDMAKDPIIFAMANPEPEITPDKARAARPDAIIATGRSDYPNQVNNVLGFPSIFRGALDTRSTQINEEMKLAAVHALAKLARMDVPDKVSATYGGKSFKFGRDYLIPKPFDTRVLLWVAPEVAKAAMKSGVATRAIEDWDQYRESLEAQQGPSKVFIRSAINRVHQNSEANGGELPRIVFPEGTSTKVLKALATLVEERICQPILLGYPERVKEKIKALDIPLLNDVQIVHPSSHPKYFSFVEKLYSLRQRKGINLGEAERLMADPNYFAAMMVNMGEADGMVSGSSINYADAVRPILQTIGTYKEGIPAGLNFVLLEDKFLVLADTTVNFNPSAEQCAQIALQAAKIVEYFGIEPRVAMLSYSNFSGAEGTPRKMKKAAEIARTLRPDLMIEGDMQADTAVNPEIMERLFPFSGLKGGANVLVFPNLESSNIAYKLIQQIGKAEVIGPFLTGVRRSANVLQRTTTVDGIVNSVVFTALEAQFIKDALKARGKK"}, "B2": {"name": "malic enzyme B (MaeB) from Escherichia coli (enzyme, UniProt P76558 1-759, looked up)", "chain": "MDDQLKQSALDFHEFPVPGKIQVSPTKPLATQRDLALAYSPGVAAPCLEIEKDPLKAYKYTARGNLVAVISNGTAVLGLGNIGALAGKPVMEGKGVLFKKFAGIDVFDIEVDELDPDKFIEVVAALEPTFGGINLEDIKAPECFYIEQKLRERMNIPVFHDDQHGTAIISTAAILNGLRVVEKNISDVRMVVSGAGAAAIACMNLLVALGLQKHNIVVCDSKGVIYQGREPNMAETKAAYAVVDDGKRTLDDVIEGADIFLGCSGPKVLTQEMVKKMARAPMILALANPEPEILPPLAKEVRPDAIICTGRSDYPNQVNNVLCFPFIFRGALDVGATAINEEMKLAAVRAIAELAHAEQSEVVASAYGDQDLSFGPEYIIPKPFDPRLIVKIAPAVAKAAMESGVATRPIADFDVYIDKLTEFVYKTNLFMKPIFSQARKAPKRVVLPEGEEARVLHATQELVTLGLAKPILIGRPNVIEMRIQKLGLQIKAGVDFEIVNNESDPRFKEYWTEYFQIMKRRGVTQEQAQRALISNPTVIGAIMVQRGEADAMICGTVGDYHEHFSVVKNVFGYRDGVHTAGAMNALLLPSGNTFIADTYVNDEPDAEELAEITLMAAETVRRFGIEPRVALLSHSNFGSSDCPSSSKMRQALELVRERAPELMIDGEMHGDAALVEAIRNDRMPDSSLKGSANILVMPNMEAARISYNLLRVSSSEGVTVGPVLMGVAKPVHVLTPIASVRRIVNMVALAVVEAQTQPL", "notes": "MaeB of E. coli, gene amplified from genomic DNA of strain SHuffle T7; Cloned in pET-28a(+); Homohexamer in the crystal and in cryo-EM; also called EcMaeB; EcMaeBapo; source: E. coli BL21(DE3), purified (HisTrap TALON, size-exclusion chromatography)"}}, "key": {"[1]": {"target": "T1, EcMaeB (Escherichia coli, UniProt P76558)", "T1 construct": "His-tag (C); made in house; host or cells: E. coli BL21(DE3)", "T1 sequence (P76558 1-759)": "B2 chain", "experiment": "Enzyme kinetic parameters (Michaelis-Menten, substrate inhibition, empirical Hill plots)", "format": "biochemical", "protocol": "(§1) Spectrophotometric assays were used to monitor the oxidative decarboxylation of L-malate to pyruvate using a SpectraMax M2, UV-Visible spectrophotometer (Molecular Devices) operated by SoftMax Pro Software with kinetic mode. All assays recorded the Δabsorbance at 340 nm (NADPH) at 30 °C. Assays were initiated by the addition of enzyme to the otherwise complete reaction mixture. […] Acetyl-CoA was tested at 5 μM.\n(§2) For this substrate inhibition model, x should be fixed. […] The plots shown in Fig. S1F were fitted to the empirical Hill equation: v0=Vmax·[malate]^h/(K0.5h+[malate]^h) where K0.5 indicates the substrate concentration for half-saturation. When h is equal to 1, K0.5 matches Michaelis constant Km."}, "[2]": {"target": "T2, BbMaeB (Bdellovibrio bacteriovorus, UniProt A0A1Z3N8R4)", "T2 sequence (A0A1Z3N8R4 1-776)": "B1 chain", "experiment": "Enzyme kinetic parameters (Michaelis-Menten, substrate inhibition, empirical Hill plots)", "format": "biochemical, Bdellovibrio bacteriovorus strain SSB218315", "protocol": "as §1, §2"}, "[3]": {"system": "DME", "set-up": "method as in PMID 10407149", "conditions": "cited from earlier work"}, "[4]": {"target": "T1, EcMaeB", "set-up": "method as in PMID 17557829", "conditions": "previous study; cited from earlier work"}, "[5]": {"substrate": "O=C(O)C[C@H](O)C(=O)O", "experiment": "Enzyme kinetic parameters (Michaelis-Menten, substrate inhibition, empirical Hill plots)", "format": "biochemical, Bdellovibrio bacteriovorus strain SSB218315", "conditions": "other: BbMaeB; substrate inhibition plot, NADP+ fixed 0.5 mM, without acetyl-CoA; pH 7.5; 30.0 °C"}, "[6]": {"substrate": "O=C(O)C[C@H](O)C(=O)O", "experiment": "Enzyme kinetic parameters (Michaelis-Menten, substrate inhibition, empirical Hill plots)", "format": "biochemical, Escherichia coli", "conditions": "other: EcMaeB; substrate inhibition plot, NADP+ fixed 0.5 mM, without acetyl-CoA; pH 7.5; 30.0 °C"}, "[7]": {"target": "the molecule itself", "experiment": "crystal structure; EcMaeB without cofactors and acetyl-CoA; 20 mg/ml protein, 0.2 M potassium chloride pH 7.0, 20% v/v PEG 3350, 20 °C; homohexamer"}}, "data": [{"molecule": "NADP^+", "values": [{"measurement": "change of Km for NADP+ with Mn2+ instead of Mg2+", "setting": "[1]; EcMaeB, 5 mM MnCl2", "value": "approximately doubled"}, {"measurement": "change of Km for NADP+ with Mn2+ instead of Mg2+", "setting": "[2]; 5 mM MnCl2", "value": "approximately doubled"}]}, {"molecule": "CCCC(=O)SCCNC(=O)CCNC(=O)[C@H](O)C(C)(C)COP(=O)(O)OP(=O)(O)OC[C@H]1O[C@@H](n2cnc3c(N)ncnc32)[C@H](O)[C@@H]1OP(=O)(O)O", "note": "[butyryl-CoA]", "values": [{"measurement": "effect on DME activity", "setting": "[3]", "value": "inhibited"}]}, {"molecule": "[Mg+2]", "note": "[Mg^2+]", "values": [{"measurement": "effect of different Mg2+ concentrations on kinetic parameters", "setting": "[1]", "value": "no significant changes in kinetic parameters"}, {"measurement": "concentration at which EcMaeB activity is inhibited", "setting": "[4]", "value": "above 4 mM"}]}, {"molecule": "O=C(O)C[C@H](O)C(=O)O", "note": "[malate, L-malate]", "values": [{"measurement": "K0.5 from the empirical Hill equation", "setting": "[1]; EcMaeB, in the presence of acetyl-CoA, 0.5 mM NADP+, 300 nM enzyme", "value": "18.1 ± 3.20", "unit": "mM"}, {"measurement": "K0.5 from the empirical Hill equation", "setting": "[2]; in the presence of acetyl-CoA, 0.5 mM NADP+, 300 nM enzyme", "value": "7.44 ± 1.21", "unit": "mM"}]}, {"molecule": "CCC(=O)SCCNC(=O)CCNC(=O)[C@H](O)C(C)(C)COP(=O)(O)OP(=O)(O)OC[C@H]1O[C@@H](n2cnc3c(N)ncnc32)[C@H](O)[C@@H]1OP(=O)(O)O", "note": "[propionyl-CoA]", "values": [{"measurement": "effect on DME activity", "setting": "[3]", "value": "inhibited"}]}, {"molecule": "B1", "values": [{"measurement": "Km", "setting": "[5]", "value": "6.22 ± 1.55", "unit": "mM"}]}, {"molecule": "B2", "values": [{"measurement": "Km", "setting": "[6]", "value": "20.7 ± 8.83", "unit": "mM"}, {"measurement": "stoichiometry N", "setting": "[7]", "value": 6}]}]}
